Source: patent US8124766B2, “Inhibitors of diacylglycerol acyltransferase” (Madrigal Pharmaceuticals, Inc., priority 2008, dated 2012)
Counter-ions that a name gives are not always drawn.

Test system: DGAT
Assay: DGAT Phospholipid FlashPlate Assay
Format: biochemical
Settings: DGAT pellet, DAG-coated PL-FlashPlate, 14C-Pal-CoA, 37° C. for 1 hour; read-out: DGAT Inhibition Activity IC50
How it was run: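 DGAT membrane pellet (0.13 mg protein/ml diluted stock) reacted 1 h at 37 °C with 14C-palmitoyl-CoA (8.3 μM diluted stock) on FlashPlates coated with 500 μM DAG, in Tris-HCl pH 7.5, 100 mM NaCl. Scintillation counts converted to % inhibition; IC50 by 4-parameter logistic fit.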

Structure (SMILES) | IC50 [nM]
CCn1c(C(=O)Nc2ccc(C3CCN(C(=O)CC(C(=O)O)c4ccccc4)CC3)cc2)cc2c(Cl)c(Cl)ccc21 (centres unmarked) [Example 61, 4-(4-{4-[(4,5-Dichloro-1-ethyl-1H-indole-2-carbonyl)-amino]-phenyl}-piperidin-1-yl)-4-oxo-2-phenyl-butyric acid] | 790
CCn1c(C(=O)Nc2ccc(N3CCN(C(=O)CC(C(=O)O)C4CCCCC4)CC3)cc2)cc2c(Cl)c(Cl)ccc21 (centres unmarked) [Example 63, 2-Cyclohexyl-4-(4-{4-[(4,5-dichloro-1-ethyl-1H-indole-2-carbonyl)-amino]-phenyl}-piperazin-1-yl)-4-oxo-butyric acid hydrochloride] | 351
CCOc1cccc2c1cc(C(=O)Nc1ccc(O[C@H]3CCN(C(=O)OC(C)(C)C)C3)cc1)n2CC [Example 65, (S)-3-{4-[(4-Ethoxy-1-ethyl-1H-indole-2-carbonyl)-amino]-phenoxy}-pyrrolidine-1-carboxylic acid tert-butyl ester] | 701
CCOc1cccc2c1cc(C(=O)Nc1ccc(O[C@H]3CCN(c4ccc(C(=O)O)cc4)C3)cc1)n2CC [Example 67] | 296
CCOc1cccc2c1cc(C(=O)Nc1ccc(N3CCN(C(=O)CC4SC(=O)NC4=O)CC3)cc1)n2CC (centres unmarked) [Example 68, 4-Ethoxy-1-ethyl-1H-indole-2-carboxylic acid (4-{4-[2-(2,4-dioxo-thiazolidin-5-yl)-acetyl]-piperazin-1-yl}-phenyl)-amide hydrochloride] | 289
CCn1c(C(=O)Nc2ccc(N3CCN(c4ccc(C(=O)O)cc4)CC3)cc2)cc2c(Cl)c(Cl)ccc21 [Example 70, 4-(4-{4-[(4,5-Dichloro-1-ethyl-1H-indole-2-carbonyl)-amino]-phenyl}-piperazin-1-yl)-benzoic acid] | 319
COc1cccc2c(C)c(C(=O)Nc3ccc(N4CCN(C(=O)[C@H]5CCC[C@@H]5C(=O)O)CC4)cc3)[nH]c12 [Example 75, (1S,2S)-2-(4-{4-[(7-Methoxy-3-methyl-1H-indole-2-carbonyl)-amino]-phenyl}-piperazine-1-carbonyl)-cyclopentanecarboxylic acid] | 372
CCOc1ccc2c(C)c(C(=O)Nc3ccc(N4CCN(C(=O)OC(C)(C)C)CC4)cc3)oc2c1OCC [Example 78, 4-{4-[(6,7-Diethoxy-3-methyl-benzofuran-2-carbonyl)-amino]-phenyl}-piperazine-1-carboxylic acid tert-butyl ester] | 848
COCc1c(C(=O)Nc2ccc(N3CCN(C(=O)OC(C)(C)C)CC3)cc2)oc2ccccc12 [Example 79, 4-{4-[(3-Methoxymethyl-benzofuran-2-carbonyl)-amino]-phenyl}-piperazine-1-carboxylic acid tert-butyl ester] | 940
CCOC(=O)N1CCC(Oc2ccc(NC(=O)c3oc4c(OCC)c(OCC)ccc4c3C)cc2)C1 (centres unmarked) [Example 80, 3-{4-[(6,7-Diethoxy-3-methyl-benzofuran-2-carbonyl)-amino]-phenoxy}-pyrrolidine-1-carboxylic acid ethyl ester] | 583
CCOC(=O)N1CCC(Oc2ccc(NC(=O)c3oc4ccccc4c3COC)cc2)C1 (centres unmarked) [Example 81, 3-{4-[(3-Methoxymethyl-benzofuran-2-carbonyl)-amino]-phenoxy}-pyrrolidine-1-carboxylic acid ethyl ester] | 720
COCCN(C)c1ccc(NC(=O)c2oc3c(F)cccc3c2C)cn1 [Example 82, 7-Fluoro-3-methyl-benzofuran-2-carboxylic acid {6-[(2-methoxy-ethyl)-methyl-amino]pyridin-3-yl}-amide] | 430

These reach a lower IC50. Values come first.

IC50 [nM] | Structure (SMILES)
240 | CCn1c(C(=O)Nc2ccc(C3CCN(C(=O)CC4(C(=O)O)CCCC4)CC3)cc2)cc2c(Cl)c(Cl)ccc21 [Example 62, 1-[2-(4-{4-[(4,5-Dichloro-1-ethyl-1H-indole-2-carbonyl)-amino]-phenyl}-piperidin-1-yl)-2-oxo-ethyl]-cyclopentanecarboxylic acid]
236 | CCn1c(C(=O)Nc2ccc(N3CCN(C(=O)CC4SC(=O)NC4=O)CC3)cc2)cc2c(Cl)c(Cl)ccc21 (centres unmarked) [Example 69, 4,5-Dichloro-1-ethyl-1H-indole-2-carboxylic acid (4-{4-[2-(2,4-dioxo-thiazolidin-5-yl)-acetyl]-piperazin-1-yl}-phenyl)-amide]
210 | CCn1c(C(=O)Nc2ccc(N3CCN(C(=O)CC(C)(C)C(=O)O)CC3)cc2)cc2c(Cl)c(Cl)ccc21 [Example 60, 4-(4-{4-[(4,5-Dichloro-1-ethyl-1H-indole-2-carbonyl)-amino]-phenyl}-piperazin-1-yl)-2,2-dimethyl-4-oxo-butyric acid]
208 | CCOc1cccc2c1cc(C(=O)Nc1ccc(O[C@H]3CCN(C(=O)CC(C)(C)C(=O)O)C3)cc1)n2CC [Example 66, 4-((S)-3-{4-[(4-Ethoxy-1-ethyl-1H-indole-2-carbonyl)-amino]-phenoxy}-pyrrolidin-1-yl)-2,2-dimethyl-4-oxo-butyric acid]
188 | COc1cccc2c(C)c(C(=O)Nc3ccc(N4CCN(C(=O)OC(C)(C)C)CC4)cc3)[nH]c12 [Example 71, 4-{4-[(7-Methoxy-3-methyl-1H-indole-2-carbonyl)-amino]-phenyl}-piperazine-1-carboxylic acid tert-butyl ester]
164 | CCn1c(C(=O)Nc2ccc(N3CCN(C(=O)CC(C(=O)O)C(C)C)CC3)cc2)cc2c(Cl)c(Cl)ccc21 (centres unmarked) [Example 64, 2-[2-(4-{4-[(4,5-Dichloro-1-ethyl-1H-indole-2-carbonyl)-amino]-phenyl}-piperazin-1-yl)-2-oxo-ethyl]-3-methyl-butyric acid]
117 | COCCN(C)c1ccc(NC(=O)c2[nH]c3c(OC)cccc3c2C)cn1 [Example 72, 7-Methoxy-3-methyl-1H-indole-2-carboxylic acid {6-[(2-methoxy-ethyl)-methyl-amino]pyridin-3-yl}-amide]
90 | CCOC(=O)N1CCC(Oc2ccc(NC(=O)c3[nH]c4c(OC)cccc4c3C)cc2)C1 (centres unmarked) [Example 73, 3-{4-[(7-Methoxy-3-methyl-1H-indole-2-carbonyl)-amino]-phenoxy}-pyrrolidine-1-carboxylic acid ethyl ester]
64 | COc1cccc2c(C)c(C(=O)Nc3ccc(N4CCN(C(=O)CC(C)(C)C(=O)O)CC4)cc3)[nH]c12 [Example 74, 4-(4-{4-[(7-Methoxy-3-methyl-1H-indole-2-carbonyl)-amino]-phenyl}-piperazin-1-yl)-2,2-dimethyl-4-oxo-butyric acid]
58 | COc1cccc2c(C)c(C(=O)Nc3ccc(N4CCN(C(=O)[C@H]5CC[C@H](C(=O)O)CC5)CC4)cc3)[nH]c12 [Example 76, trans-4-(4-{4-[(7-Methoxy-3-methyl-1H-indole-2-carbonyl)-amino]-phenyl}-piperazine-1-carbonyl)-cyclohexanecarboxylic acid]
57 | COc1cccc2c(C)c(C(=O)Nc3ccc(C4CCN(C(=O)[C@H]5CC[C@H](C(=O)O)CC5)CC4)cc3)[nH]c12 [Example 77, trans-4-(4-{4-[(7-Methoxy-3-methyl-1H-indole-2-carbonyl)-amino]phenyl}-piperidine-1-carbonyl)-cyclohexanecarboxylic acid]
